Measurements: patent publication US9078907B2, “Immunoregulator compounds” (Universita Degli Studi Di Roma “Tor Vergata”, priority 2001, dated 2015)

Assays:
Cathepsin D = assay: Western blot of Cathepsin D in macrophage phagosomal fractions after latex beads internalisation; type: cell-based, human; conditions: 5 μM S1P, 24 hours after latex beads internalisation
Method: In order to analyse the expression of an intralysosomal protein within beads containing phagolysosomes the macrophage phagosomal fraction was separated. Particularly, cells were incubated with sterile latex beads ([…]) (Sigma), 1: 200 diluted, in culture medium for 1 hour in the presence of 5% CO2 and then treated with 5 μM S1P.
Separation of the phagosomes was carried out by centrifugation on sucrose gradient. Cells were washed three times with PBS (twice for 10 minutes) and then again incubated for 24 hours at 37°C. Following the internalisation and 24 hour incubation period cells were washed with cold PBS and collected using a little scraper in PBS at 4° C., then centrifuged at 2000 rpm for 10 minutes at 4° C. and finally washed with homogenising buffer (250 mM sucrose, 3 mM imidazole, pH 7.4) again at 4° C. Cellular pellet was suspended in 1 ml homogenising buffer and cells were lysed with an homogenizer. Phagosomes were isolated by centrifugation on sucrose gradient. Cells, suspended in 1 ml of PBS, were added to 1 ml of 40% sucrose solution and such a suspension was stratified on 2 ml of 62% sucrose solution in ultracentrifuge tubes. Then 2 ml of 35%, 25% and 10% sucrose solutions were stratified (all the solutions were prepared in 3 mM imidazole, pH 7.4). The tubes were ultra-centrifuged using SW41 rotor at 100000 g at 4° C. […]

[1] = tested on: Mycobacterium tuberculosis; assay: Dose dependent effect of S1P on MTB replication in macrophages from peripheral blood monocytes; type: cell-based; conditions: human monocyte-derived macrophages, 4 donors, 0.5, 5 or 50 μM, fifth day after infection
Method: Peripheral blood mononuclear cells were isolated from human Buffy coat blood preparations by gradient centrifugation and suspended at 5×10^6/ml in complete medium [RPMI 1640 (Gibco BRL) supplemented with 10% fetal bovine serum (Gibco BRL), 5 mM L-glutamine and Gentamicine (5 μg/ml)]. Monocytes were then separated by adherence for 1 hour in polystyrene 75 cm^2 flasks (Corning, Cambridge, Mass.). After incubation, non-adherent cells were removed by three washes with warm RPMI 1640. […] Finally, adherent monocytes were collected after 15 minute incubation at 4° C. in the presence of 5 mM EDTA in PBS. Cells then were washed, incubated in complete medium for 5-7 days in 24 well plate at the concentration of 10^6 cells/ml to get monocyte-derived macrophages. […]
Sphingosine 1-phosphate (S-1P), used at the concentrations of 0.5, 5 or 50 μM inhibits intracellular replication of Mycobacterium tuberculosis in human monocyte-derived macrophages (MDM) from peripheral blood of healthy donors. Results are obtained from experiments performed on MDM from 4 different donors and are expressed as the means of the percentages of mycobacterial killing±standard error at the fifth day after infection. Percentage of mycobacterial killing is calculated by using the following formula: [1−(CFU from infected and S-1P stimulated MDM/CFU from infected unstimulated MDM)]×100.

macrophage PLD = type: cell-based, human
H37Rv MTB = assay: Mycobacterial viability (CFU) in MTB infected monocyte derived macrophages; type: cell-based, Mycobacterium tuberculosis; conditions: MTB MOI 1:1, S1P 5 μM, 5 days after the infection, statistically significant
Method: In order to evaluate the bacterial viability, monocyte derived macrophages were infected for 3 hours with MTB at 1:1 macrophage/bacterium infection ratio and then treated with S1P (5 μM). At time 0(just after infection) and after 2 and 5 days the plates containing infected cellular cultures were centrifuged at 2000 RPM for 10 minutes and the supernatant was discarded. Then 1 ml PBS and 0.1% saponin were added to each well and the contents were incubated for 20 minute at 37° C. After incubation cellular lysates were sonicated for 20 seconds in such a way to break any possible bacterial aggregates. Lysates thus obtained were diluted in sterile saline 1:100, 1:1000, 1:10000 with addition of 0.01% Tween 80 and plated on Middlebrook 7H10 (Difco). Plates were incubated at 37° C. for about one month and colonies enumerated.
Based on the observations about the possible antimicrobial role of PLD and S1P during Mycobacterium tuberculosis infection it was investigated whether S1P macrophage exogenous stimulation and PLD activation were associated to a reduction of mycobacterial viability. To that object, monocytes were infected for three hours with H37Rv MTB at a multiplicity of infection of 1 bacillus for 1 cell. […]

CCCCCCCCCCCCC/C=C/[C@@H](O)[C@@H](N)COP(=O)(O)O [S1P, D-erythro-sphingosine 1-phosphate]
amount of intralysosomal protein (Cathepsin D) in the phagosomal fraction versus non-treated macrophages (Cathepsin D): higher
intracellular replication of Mycobacterium tuberculosis (percentage of mycobacterial killing) [1]: inhibits
Pet-OH production, index of PLD activity, versus MTB infected non S1P treated macrophages (macrophage PLD): higher
S1P concentration giving maximum activation of macrophage PLD (macrophage PLD): 5 µM
time of maximum activation of macrophage PLD (macrophage PLD): 30 min
CFU number after S1P treatment (H37Rv MTB): reduced
